Laboratory results as given in patent publication US7569547B2, “Inhibiting furin with polybasic peptides” (Board of Supervisors of Louisiana State University and …, priority 2001, dated 2009).
Entries after “also recorded” stand apart in the source; their conditions may differ.

Columns and labels:
HEK293 cells = assay: Growth of HEK293 cells monitored with the dye WST (cytotoxicity); format: cell-based, human
Experimental: HEK293 cells were seeded into 96-well plates at the densities indicated. Their growth rates were monitored using the dye WST, which is cleaved by mitochondrial dehydrogenases to a […] dye only in viable cells.

HIV = assay: Formation of syncytia by HIV in vitro in MT4 T cells; format: cell-based; conditions: micromolar concentrations, MT4 line of T cells, preliminary data (not shown)
Source text: The administration of polyarginines and other polybasic peptides in accordance with the present invention may be used to combat bacterial and viral infections, and to inhibit the growth of certain cancers. Preliminary data, for example, show activity against Pseudomonas exotoxin, and against HIV.

Question: Which results are given for `N=C(N)NCCC[C@@H](NC(=O)[C@H](N)CCCN=C(N)N)C(=O)N[C@H](CCCNC(=N)N)C(=O)N[C@H](CCCNC(=N)N)C(=O)N[C@H](CCCNC(=N)N)C(=O)N[C@H](CCCN=C(N)N)C(=O)O` [Hexa-D-arginine]?
Answer: mean absorbance at 450 nm (WST) (HEK293 cells; HEK293, 2 μM D6R, 51 hour): 0.69 ± 0.02; mean absorbance at 450 nm (WST) (HEK293 cells; HEK293, 2 μM D6R, 75 hour): 1.25 ± 0.11; mean absorbance at 450 nm (WST) (HEK293 cells; HEK293, 2 μM D6R, 99 hour): 1.42 ± 0.02; mean absorbance at 450 nm (WST) (HEK293 cells; HEK293, 4 μM D6R, 51 hour): 0.64 ± 0.03; mean absorbance at 450 nm (WST) (HEK293 cells; HEK293, 4 μM D6R, 75 hour): 1.28 ± 0.14; mean absorbance at 450 nm (WST) (HEK293 cells; HEK293, 4 μM D6R, 99 hour): 1.39 ± 0.06; mean absorbance at 450 nm (WST) (HEK293 cells; HEK293, 6 μM D6R, 51 hour): 0.63 ± 0.04; mean absorbance at 450 nm (WST) (HEK293 cells; HEK293, 6 μM D6R, 75 hour): 1.13 ± 0.14; mean absorbance at 450 nm (WST) (HEK293 cells; HEK293, 6 μM D6R, 99 hour): 1.48 ± 0.04; mean absorbance at 450 nm (WST) (HEK293 cells; HEK293, 8 μM D6R, 51 hour): 0.67 ± 0.01; mean absorbance at 450 nm (WST) (HEK293 cells; HEK293, 8 μM D6R, 75 hour): 1.36 ± 0.08; mean absorbance at 450 nm (WST) (HEK293 cells; HEK293, 8 μM D6R, 99 hour): 1.40 ± 0.05; mean absorbance at 450 nm (WST) (HEK293 cells; HEK293, 10 μM D6R, 51 hour): 0.64 ± 0.03; mean absorbance at 450 nm (WST) (HEK293 cells; HEK293, 10 μM D6R, 75 hour): 1.28 ± 0.14; mean absorbance at 450 nm (WST) (HEK293 cells; HEK293, 10 μM D6R, 99 hour): 1.49 ± 0.08; mean absorbance at 450 nm (WST) (HEK293 cells; HEK293, 30 μM D6R, 51 hour): 0.64 ± 0.02; mean absorbance at 450 nm (WST) (HEK293 cells; HEK293, 30 μM D6R, 75 hour): 1.29 ± 0.08; mean absorbance at 450 nm (WST) (HEK293 cells; HEK293, 30 μM D6R, 99 hour): 1.45 ± 0.06; mean absorbance at 450 nm (WST) (HEK293 cells; HEK293, 60 μM D6R, 51 hour): 0.66 ± 0.05; mean absorbance at 450 nm (WST) (HEK293 cells; HEK293, 60 μM D6R, 75 hour): 1.17 ± 0.08; mean absorbance at 450 nm (WST) (HEK293 cells; HEK293, 60 μM D6R, 99 hour): 1.48 ± 0.06; mean absorbance at 450 nm (WST) (HEK293 cells; HEK293, 100 μM D6R, 51 hour): 0.62 ± 0.03; mean absorbance at 450 nm (WST) (HEK293 cells; HEK293, 100 μM D6R, 75 hour): 1.19 ± 0.11; mean absorbance at 450 nm (WST) (HEK293 cells; HEK293, 100 μM D6R, 99 hour): 1.47 ± 0.09; effect on growth of the cells (HEK293 cells; HEK293 cells, 2-100 μM): did not significantly affect the growth of the cells; cytotoxicity (HEK293 cells; HEK293 cells, up to 100 μM final concentration, preliminary data, listed as D6R): not toxic to cells; also recorded: did not appear to be cytotoxic; formation of syncytia by HIV (HIV): inhibited the formation of syncytia
